According to patent publication US20210070748A1, “INHIBITORS OF BRUTONS TYROSINE KINASE” (Pharmacyclics LLC, priority 2015, published 2021):

What was measured:
Type in all cases: biochemical
[1] = target: T1, JAK3 (Homo sapiens, UniProt P52333); assay: Inhibition of a panel of kinases, in vitro HotSpot kinase assay: JAK3; details: D-compounds panel data; 1 μM ATP; read-out: IC50 JAK3
T1 sequence (P52333 1-1124): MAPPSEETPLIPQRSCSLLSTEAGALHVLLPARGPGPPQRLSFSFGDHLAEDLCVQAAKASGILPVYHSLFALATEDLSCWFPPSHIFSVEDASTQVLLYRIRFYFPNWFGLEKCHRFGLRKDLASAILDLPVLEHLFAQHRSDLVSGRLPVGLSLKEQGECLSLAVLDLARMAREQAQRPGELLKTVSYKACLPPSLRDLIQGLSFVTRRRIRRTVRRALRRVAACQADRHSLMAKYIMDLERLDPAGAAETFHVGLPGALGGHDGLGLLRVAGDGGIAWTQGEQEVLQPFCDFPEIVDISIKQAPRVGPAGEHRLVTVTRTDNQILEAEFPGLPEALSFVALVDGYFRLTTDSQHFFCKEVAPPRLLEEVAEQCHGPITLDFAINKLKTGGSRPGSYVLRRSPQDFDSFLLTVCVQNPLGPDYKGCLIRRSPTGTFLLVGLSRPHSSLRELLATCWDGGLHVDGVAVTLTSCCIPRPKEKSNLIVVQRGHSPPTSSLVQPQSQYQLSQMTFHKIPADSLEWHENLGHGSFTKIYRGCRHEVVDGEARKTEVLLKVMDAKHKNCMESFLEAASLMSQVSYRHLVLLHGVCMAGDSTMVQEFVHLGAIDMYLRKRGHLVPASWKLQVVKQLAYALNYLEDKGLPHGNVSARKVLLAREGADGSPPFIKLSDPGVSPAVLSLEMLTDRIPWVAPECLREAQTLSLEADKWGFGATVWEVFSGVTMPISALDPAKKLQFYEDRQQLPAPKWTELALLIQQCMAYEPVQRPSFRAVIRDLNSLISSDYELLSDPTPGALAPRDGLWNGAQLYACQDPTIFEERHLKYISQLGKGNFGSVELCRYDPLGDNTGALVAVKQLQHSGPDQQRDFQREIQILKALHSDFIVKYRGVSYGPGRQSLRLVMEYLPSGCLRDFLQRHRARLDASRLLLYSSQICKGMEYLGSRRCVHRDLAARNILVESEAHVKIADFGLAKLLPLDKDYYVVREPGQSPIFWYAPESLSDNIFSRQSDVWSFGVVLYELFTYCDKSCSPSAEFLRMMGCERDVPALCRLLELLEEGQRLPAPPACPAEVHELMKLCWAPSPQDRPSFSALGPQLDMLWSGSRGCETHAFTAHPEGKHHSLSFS

[2] = target: T2, ITK (Homo sapiens, UniProt Q08881); assay: Inhibition of a panel of kinases, in vitro HotSpot kinase assay: ITK; details: D-compounds panel data; 1 μM ATP
T2 sequence (Q08881 1-620): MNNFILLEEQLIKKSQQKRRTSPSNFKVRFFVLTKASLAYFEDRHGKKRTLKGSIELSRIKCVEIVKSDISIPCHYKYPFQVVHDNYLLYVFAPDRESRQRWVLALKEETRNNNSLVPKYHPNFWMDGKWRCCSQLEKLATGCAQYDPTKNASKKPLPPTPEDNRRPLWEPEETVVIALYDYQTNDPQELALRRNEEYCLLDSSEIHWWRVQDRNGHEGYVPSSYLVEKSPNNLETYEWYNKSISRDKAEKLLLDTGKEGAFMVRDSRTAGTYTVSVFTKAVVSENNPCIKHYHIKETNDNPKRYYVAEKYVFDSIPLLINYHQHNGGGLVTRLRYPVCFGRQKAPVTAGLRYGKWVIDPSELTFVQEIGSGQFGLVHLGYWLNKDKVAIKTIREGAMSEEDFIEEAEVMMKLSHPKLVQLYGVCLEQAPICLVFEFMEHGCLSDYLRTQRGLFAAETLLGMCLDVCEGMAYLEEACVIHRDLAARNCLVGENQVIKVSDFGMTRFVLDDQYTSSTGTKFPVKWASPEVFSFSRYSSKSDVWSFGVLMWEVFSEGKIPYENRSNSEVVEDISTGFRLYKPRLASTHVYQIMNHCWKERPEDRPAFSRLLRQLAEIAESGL
Procedure: (§1) The degree of inhibition of a panel of kinases is determined using the in vitro HotSpot kinase assay (purified enzymes, ^33P-ATP, an appropriate substrate and 1 μM ATP).

[3] = target: EGFR (Homo sapiens, UniProt P00533); assay: Inhibition of a panel of kinases, in vitro HotSpot kinase assay: EGFR; details: D-compounds panel data; 1 μM ATP
EGFR, sequence (P00533 25-1210): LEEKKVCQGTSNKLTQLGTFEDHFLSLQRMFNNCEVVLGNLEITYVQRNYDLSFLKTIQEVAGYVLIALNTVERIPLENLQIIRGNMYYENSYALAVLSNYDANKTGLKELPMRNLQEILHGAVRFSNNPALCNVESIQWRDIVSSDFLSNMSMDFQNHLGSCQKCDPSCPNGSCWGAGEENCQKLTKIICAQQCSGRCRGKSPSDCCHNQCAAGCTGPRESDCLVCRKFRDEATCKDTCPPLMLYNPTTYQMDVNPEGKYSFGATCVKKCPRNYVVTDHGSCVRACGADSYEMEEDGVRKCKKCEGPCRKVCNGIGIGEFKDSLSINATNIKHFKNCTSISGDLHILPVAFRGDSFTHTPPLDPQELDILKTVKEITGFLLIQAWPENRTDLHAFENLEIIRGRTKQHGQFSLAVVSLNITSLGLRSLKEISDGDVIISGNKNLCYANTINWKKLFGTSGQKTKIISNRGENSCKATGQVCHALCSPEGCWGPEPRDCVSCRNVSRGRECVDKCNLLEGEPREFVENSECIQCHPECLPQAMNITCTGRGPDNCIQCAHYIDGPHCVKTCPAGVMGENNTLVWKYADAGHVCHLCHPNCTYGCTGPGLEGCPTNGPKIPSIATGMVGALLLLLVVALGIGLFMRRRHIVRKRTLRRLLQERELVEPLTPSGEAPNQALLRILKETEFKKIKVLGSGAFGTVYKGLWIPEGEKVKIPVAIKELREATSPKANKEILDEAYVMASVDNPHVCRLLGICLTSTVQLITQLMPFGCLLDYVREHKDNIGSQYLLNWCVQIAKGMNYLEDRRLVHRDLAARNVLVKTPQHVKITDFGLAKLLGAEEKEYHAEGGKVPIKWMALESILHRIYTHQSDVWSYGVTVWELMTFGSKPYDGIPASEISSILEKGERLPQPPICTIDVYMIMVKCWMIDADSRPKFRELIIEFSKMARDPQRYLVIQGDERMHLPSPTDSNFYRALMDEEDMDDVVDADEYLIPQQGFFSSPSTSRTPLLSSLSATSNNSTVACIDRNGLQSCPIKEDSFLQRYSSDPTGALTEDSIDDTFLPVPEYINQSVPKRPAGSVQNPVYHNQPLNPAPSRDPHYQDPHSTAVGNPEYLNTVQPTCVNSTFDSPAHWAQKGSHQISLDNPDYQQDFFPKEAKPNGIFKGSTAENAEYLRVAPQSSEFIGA
Procedure: as §1

[4] = target: SRC (Homo sapiens, UniProt P12931); assay: Inhibition of a panel of kinases, in vitro HotSpot kinase assay: SRC; details: D-compounds panel data; 1 μM ATP
SRC, sequence (P12931 whole entry): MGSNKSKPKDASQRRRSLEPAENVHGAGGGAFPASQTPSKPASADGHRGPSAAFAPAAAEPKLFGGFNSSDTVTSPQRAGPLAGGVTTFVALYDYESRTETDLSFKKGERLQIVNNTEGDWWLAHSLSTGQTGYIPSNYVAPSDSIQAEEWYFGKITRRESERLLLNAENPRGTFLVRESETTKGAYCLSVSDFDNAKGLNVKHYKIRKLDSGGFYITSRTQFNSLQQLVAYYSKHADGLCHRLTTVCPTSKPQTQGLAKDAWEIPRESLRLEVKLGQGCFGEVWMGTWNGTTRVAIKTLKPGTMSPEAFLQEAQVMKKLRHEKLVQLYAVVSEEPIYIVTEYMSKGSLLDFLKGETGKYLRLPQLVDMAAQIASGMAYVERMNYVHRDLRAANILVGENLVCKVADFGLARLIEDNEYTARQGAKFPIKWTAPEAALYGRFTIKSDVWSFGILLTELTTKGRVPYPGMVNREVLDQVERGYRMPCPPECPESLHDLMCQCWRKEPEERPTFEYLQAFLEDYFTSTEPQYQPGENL
Procedure: as §1

[5] = target: T3, TEC (Homo sapiens, UniProt P42680); assay: Inhibition of a panel of kinases, in vitro HotSpot kinase assay: TEC; details: D-compounds panel data; 1 μM ATP
T3 sequence (P42680 1-631): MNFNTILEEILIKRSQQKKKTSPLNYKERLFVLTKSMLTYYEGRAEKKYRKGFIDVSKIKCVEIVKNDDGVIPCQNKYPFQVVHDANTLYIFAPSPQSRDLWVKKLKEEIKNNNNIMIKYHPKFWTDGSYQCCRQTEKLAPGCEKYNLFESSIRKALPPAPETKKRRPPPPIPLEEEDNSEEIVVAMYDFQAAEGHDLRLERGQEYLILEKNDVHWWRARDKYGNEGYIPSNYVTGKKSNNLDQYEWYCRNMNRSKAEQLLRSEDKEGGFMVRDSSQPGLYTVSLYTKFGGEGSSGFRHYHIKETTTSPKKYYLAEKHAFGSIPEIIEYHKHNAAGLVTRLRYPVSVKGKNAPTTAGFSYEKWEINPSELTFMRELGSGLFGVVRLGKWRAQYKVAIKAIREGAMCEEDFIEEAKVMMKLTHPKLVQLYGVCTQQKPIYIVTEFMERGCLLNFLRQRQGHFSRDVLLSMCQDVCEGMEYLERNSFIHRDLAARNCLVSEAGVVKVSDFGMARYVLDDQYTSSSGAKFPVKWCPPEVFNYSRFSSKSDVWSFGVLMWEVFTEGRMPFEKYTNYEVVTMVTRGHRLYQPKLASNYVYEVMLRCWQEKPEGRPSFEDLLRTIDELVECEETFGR
Procedure: as §1

Row | IC50 [1] [nM] | IC50 [2] [nM] | IC50 [3] [nM] | IC50 [4] [nM] | IC50 [5] [nM] | SMILES
1 | > 10000 | > 10000 | 1000 to 10000 | > 10000 | 1000 to 10000 | Cc1nn(C)cc1Nc1nc(N2CCC[C@@H](NC(=O)c3ccc(C4CC4)cc3)[C@H]2C)cnc1C(N)=O [Example D-272, 5-[(2R,3R)-3-(4-cyclopropylbenzamido)-2-methylpiperidin-1-yl]-3-[(1,3-dimethyl-1H-pyrazol-4-yl)amino]pyrazine-2-carboxamide]
2 | 1000 to 10000 | 100 to 1000 | 100 to 1000 | 100 to 1000 | 10 to 100 | CCn1cc(Nc2nc(N3CCC[C@@H](NC(=O)c4ccc(C5CC5)cc4)[C@H]3C)cnc2C(N)=O)cn1 [Example D-273, 5-[(2R,3R)-3-(4-cyclopropylbenzamido)-2-methylpiperidin-1-yl]-3-[(1-ethyl-1H-pyrazol-4-yl)amino]pyrazine-2-carboxamide]
3 | 1000 to 10000 | 100 to 1000 | 1000 to 10000 | 10 to 100 | ≤ 10 | C[C@@H]1[C@H](NC(=O)c2ccc(C3CC3)cc2)CCCN1c1cnc(C(N)=O)c(Nc2cnn(C3CCOCC3)c2)n1 [Example D-274, 5-[(2R,3R)-3-(4-cyclopropylbenzamido)-2-methylpiperidin-1-yl]-3-{[1-(oxan-4-yl)-1H-pyrazol-4-yl]amino}pyrazine-2-carboxamide]
4 | > 10000 | 1000 to 10000 | > 10000 | 100 to 1000 | 10 to 100 | C[C@@H]1[C@H](NC(=O)c2ccc(C3CC3)cc2)CCCN1c1cnc(C(N)=O)c(Nc2cnn(C(F)F)c2)n1 [Example D-275, 5-[(2R,3R)-3-(4-cyclopropylbenzamido)-2-methylpiperidin-1-yl]-3-{[1-(difluoromethyl)-1H-pyrazol-4-yl]amino}pyrazine-2-carboxamide]
5 | > 10000 | > 10000 | > 10000 | > 10000 | > 10000 | C[C@@H]1[C@H](NC(=O)c2ccc(C3CC3)cc2)CCCN1c1cnc(C(N)=O)c(Nc2cnn(C)c2C(F)(F)F)n1 [Example D-276, 5-[(2R,3R)-3-(4-cyclopropylbenzamido)-2-methylpiperidin-1-yl]-3-{[1-methyl-5-(trifluoromethyl)-1H-pyrazol-4-yl]amino}pyrazine-2-carboxamide]
6 | 100 to 1000 | 100 to 1000 | 1000 to 10000 | 10 to 100 | ≤ 10 | C[C@@H]1[C@H](NC(=O)c2ccc(C3CC3)cc2)CCCN1c1nnc(C(N)=O)c(Nc2cnn(C)c2)n1 [Example D-277, 3-[(2R,3R)-3-(4-cyclopropylbenzamido)-2-methylpiperidin-1-yl]-5-[(1-methyl-1H-pyrazol-4-yl)amino]-1,2,4-triazine-6-carboxamide]
7 | > 10000 | > 10000 | > 10000 | > 10000 | > 10000 | C[C@@H]1[C@H](NC(=O)c2ccc(C3CC3)cc2)CCCN1c1cnc(C(N)=O)c(Nc2cn(C)nc2C(F)(F)F)n1 [Example D-278, 5-[(2R,3R)-3-(4-cyclopropylbenzamido)-2-methylpiperidin-1-yl]-3-{[1-methyl-3-(trifluoromethyl)-1H-pyrazol-4-yl]amino}pyrazine-2-carboxamide]
8 | > 10000 | 100 to 1000 | 1000 to 10000 | 100 to 1000 | ≤ 10 | C[C@@H]1[C@H](NC(=O)c2ccc(C3CC3)cc2)CCCN1c1cnc(C(N)=O)c(Nc2cnn(C3CC3)c2)n1 [Example D-279, 3-[(1-cyclopropyl-1H-pyrazol-4-yl)amino]-5-[(2R,3R)-3-(4-cyclopropylbenzamido)-2-methylpiperidin-1-yl]pyrazine-2-carboxamide]
9 | 1000 to 10000 | 10 to 100 | 1000 to 10000 | ≤ 10 | ≤ 10 | C[C@@H]1[C@H](NC(=O)c2ccc(C3CC3)cc2)CCCN1c1cnc(C(N)=O)c(Nc2cnn(C3CCNCC3)c2)n1 [Example D-280, 5-[(2R,3R)-3-(4-cyclopropylbenzamido)-2-methylpiperidin-1-yl]-3-{[1-(piperidin-4-yl)-1H-pyrazol-4-yl]amino}pyrazine-2-carboxamide]
10 | 1000 to 10000 | 100 to 1000 | 1000 to 10000 | 100 to 1000 | 10 to 100 | C[C@@H]1[C@H](NC(=O)c2ccc(C3CC3)cc2)CCCN1c1cnc(C(N)=O)c(Nc2cnn(CCO)c2)n1 [Example D-281, 5-[(2R,3R)-3-(4-cyclopropylbenzamido)-2-methylpiperidin-1-yl]-3-{[I-(2-hydroxyethyl)-1H-pyrazol-4-yl]amino}pyrazine-2-carboxamide]
11 | > 10000 | 100 to 1000 | 1000 to 10000 | 100 to 1000 | 10 to 100 | C[C@@H]1[C@H](NC(=O)c2ccc(C3CC3)cc2)CCCN1c1cnc(C(N)=O)c(Nc2cn[nH]c2)n1 [Example D-282, 5-[(2R,3R)-3-(4-cyclopropylbenzamido)-2-methylpiperidin-1-yl]-3-[(1H-pyrazol-4-yl)amino]pyrazine-2-carboxamide]
12 | 1000 to 10000 | 100 to 1000 | 1000 to 10000 | 10 to 100 | ≤ 10 | CC(=O)N1CCC(n2cc(Nc3nc(N4CCC[C@@H](NC(=O)c5ccc(C6CC6)cc5)[C@H]4C)cnc3C(N)=O)cn2)CC1 [Example D-283, 3-{[1-(1-acetylpiperidin-4-yl)-1H-pyrazol-4-yl]amino}-5-[(2R,3R)-3-(4-cyclopropylbenzamido)-2-methylpiperidin-1-yl]pyrazine-2-carboxamide]
13 | > 10000 | 100 to 1000 | > 10000 | 10 to 100 | ≤ 10 | C[C@@H]1[C@H](NC(=O)c2ccc(C3CC3)cc2)CCCN1c1cnc(C(N)=O)c(Nc2cnn(-c3ccncc3)c2)n1 [Example D-284, 5-[(2R,3R)-3-(4-cyclopropylbenzamido)-2-methylpiperidin-1-yl]-3-{[1-(pyridin-4-yl)-1H-pyrazol-4-yl]amino}pyrazine-2-carboxamide]
